# Source: patent US7319000B1, “Compositions and methods for eliciting immune or anti-infective responses” (priority 1992, dated 2008)
# Like-named read-outs stand apart in the source and are kept apart here. Ends that are not written are not given here.
# Tests used:
# [1] = test system: spleen cells (CTL response to R15K); experiment: CTL activity of spleen cells after a single id footpad injection (FIG. 4)
# [2] = test system: HIV-1 IIIB infection of human cells; format: cell-based
# [3] = test system: HIV-1 infection of primary human T cells; experiment: HIV-1 infection of primary human T cells, reverse transcriptase assay; format: cell-based; conditions: peptide at 1 μg/ml; IIIB strain; RT activity after 9 days; FIG. 8
# 3A9 target cells (H-2k) = format: in vivo, Balb/c mice; conditions: effector cells: No Treatment
# [4] = test system: PBMCs of immunized rhesus monkeys; experiment: PBMC proliferation in rhesus monkeys immunized with a mixture of eight synthetic peptides; format: in vivo; parameters: key to T-cell Proliferation Responses: —: no detectable response; 1+: poor response; 2+: good response; 3+: better response; 4+: best response; 6+: best response; conditions: for T-cell Proliferation Responses: PBMC response to the individual peptide or gp160
# Experimental: In the present studies, three rhesus monkeys (#7, #23 and #283C) were immunized subcutaneously with 1 ml (0.1 ml/site) of a mixture of eight synthetic peptides (300·g of each peptide in sterile water) emulsified in complete Freund's adjuvant at 1:1 ratio. […] At 3 and 7 weeks after the primary immunization, two booster injections of the peptide mixture (150·g of each peptide in sterile water) emulsified in incomplete Freund's adjuvant were given to each monkey. Monkey #7 was terminated after […], for health reasons unrelated to the study, while the remaining two monkeys (#283C and #23) received one additional booster injection at 25 weeks.
# At two week intervals following the first immunization of each animal, 15 ml of whole heparinized blood was collected by venous puncture. The peripheral blood mononuclear cells (PBMC) were separated by standard ficoll-hypaque centrifugation and employed in proliferation assays. The PBMCs were monitored every two weeks for a period of 32 weeks for proliferative responses against individual peptides and recombinant gp160.
# [5] = test system: PLN cells from A SW × Balb/c F1 mice; experiment: In vitro proliferation (3H-TdR) of PLN cells from immunized A.SW x BALB/c F1 mice; format: in vivo, A.SWXBALB/C F1 mice; parameters: key: −: cpm values are corrected and categorized according to unrelated antigen response in vitro.; •: Not determined.; +: cpm values are corrected and categorized according to unrelated antigen response in vitro.; ++: cpm values are corrected and categorized according to unrelated antigen response in vitro.; +++: cpm values are corrected and categorized according to unrelated antigen response in vitro.; ++++: cpm values are corrected and categorized according to unrelated antigen response in vitro
# [6] = test system: PLN cells from B6C3F1 mice; experiment: In vitro proliferation (3H-TdR) of PLN cells from immunized B6C3 F1 mice; format: in vivo; parameters: key to In Vitro Proliferation of PLN Cells from B6C3F1, Analogous Peptide / In Vitro Proliferation of PLN Cells from B6C3F1, GP 160: −: cpm values are corrected and categorized according to unrelated antigen response in vitro.; •: Not determined.; +: cpm values are corrected and categorized according to unrelated antigen response in vitro.; ++: cpm values are corrected and categorized according to unrelated antigen response in vitro.; +++: cpm values are corrected and categorized according to unrelated antigen response in vitro.; ++++: cpm values are corrected and categorized according to unrelated antigen response in vitro
# BALB/c mice = experiment: Anti-peptide antibody response (ELISA) in BALB/c mice immunized with peptide multimers; format: in vivo
# [7] = in vitro antigen: analogous peptide
# [8] = disulfide (di-Cys) polymeric form
compound,measurement,setting,value
CC[C@H](C)[C@H](NC(=O)[C@@H](NC(=O)[C@@H](NC(=O)[C@H](Cc1ccccc1)NC(=O)[C@H](C)NC(=O)[C@H](CCCNC(=N)N)NC(=O)CNC(=O)[C@@H]1CCCN1C(=O)CNC(=O)[C@H](CCCNC(=N)N)NC(=O)[C@H](CCC(N)=O)NC(=O)[C@@H](NC(=O)[C@@H](N)CCCNC(=N)N)[C@@H](C)CC)C(C)C)[C@@H](C)O)C(=O)NCC(=O)N[C@@H](CCCCN)C(=O)O [Peptide R15K],"effect of anti-CD4 MAbs plus complement, or complement alone, on CTL cytotoxicity","P815 target cells (H-2d); effectors from mice immunized with monomeric peptide, FIG. 3A",no significant effect
same,effect of anti-CD8 MAbs and rabbit complement on CTL cytotoxicity,"P815 target cells (H-2d); effectors from mice immunized with monomeric peptide, peptide treated or env expressing targets, FIG. 3A",abolished the cytotoxicity
CRIKQIINMWQGVGKAMYA [Peptide C19A],CTL-inducing activity of helper T-cell peptide injected alone,[1],lacked CTL-inducing activity
"GIAIGPGRTLYAREK [Peptide D27, V3 loop peptide, strain NY-5]",% RT INHIBITION,[2],0%
"GIHFGPGQALYTTGI [Peptide D33, V3 loop peptide, strain MAL]",% RT INHIBITION,[2],0%
HGEFAPGNYPALWSYA [Peptide B105],in vivo CTL response against unmodified free synthetic peptide,P815 target cells (H-2d); same immunization protocol as Example 5,successfully generated
"NNTRKSITKGPGRVIYATGQIIGD [Peptide D26, V3 loop peptide, strain RF]",% RT INHIBITION,[2],72.2%
RAFVTIGK [Peptide R8K],inhibition of HIV-1 infection of primary human T cells,[3],66%
"RIHIGPGARFLTTKN [Peptide D39, V3 loop peptide, strain MN(Y-L)]",% RT INHIBITION,[2],73.8%
"RIHIGPGRAFFTTKN [Peptide D40, V3 loop peptide, strain MN(Y-F)]",% RT INHIBITION,[2],62.8%
"RIHIGPGRAFYTTKN [Peptide D24, V3 loop peptide, strain MN]",% RT INHIBITION,[2],22.1%
"RTPTGLGQSLYTTRS [Peptide D38, V3 loop peptide, strain ELI]",% RT INHIBITION,[2],33.7%
"RVTLGPGRVWYTTGE [Peptide D29, V3 loop peptide, strain CDC4]",% RT INHIBITION,[2],0%
"SIHIGPGRAFYATGD [Peptide D30, V3 loop peptide, strain SC]",% RT INHIBITION,[2],54.3%
"SIRIGPGKVFTAKGG [Peptide D31, V3 loop peptide, strain Z3]",% RT INHIBITION,[2],0%
"SISIGPGRAFFATTD [Peptide D34, V3 loop peptide, strain Z321]",% RT INHIBITION,[2],0%
"SITKGPGRVIYATGQ [Peptide D28, V3 loop peptide, strain RF]",% RT INHIBITION,[2],0%
"SIYIGPGRAFHTTGR [Peptide D32, V3 loop peptide, strain SF2]",% RT INHIBITION,[2],0%
"SLSIGPGRAPRTREI [Peptide D25, V3 loop peptide, strain WMJ-3]",% RT INHIBITION,[2],42.4%
"STPIGLGQALYTTRG [Peptide D35, V3 loop peptide, strain Z6]",% RT INHIBITION,[2],30.3%
"STPIGLGQALYTTRI [Peptide D37, V3 loop peptide, strain JY1]",% RT INHIBITION,[2],0%
"TYQRTRALVTG [Peptide B106, free synthetic peptide from Influenza virus nucleoprotein (aa 147-158)]",% Specific Lysis,"3A9 target cells (H-2k); target 3A9 (MHC-mis-matched, H-2k), E:T 80:1",0%
same,% Specific Lysis,"3A9 target cells (H-2k); target 3A9 (MHC-mis-matched, H-2k), E:T 160:1",0%
same,% Specific Lysis,"3A9 target cells (H-2k); target 3A9 + B106, E:T 20:1",0%
same,% Specific Lysis,"3A9 target cells (H-2k); target 3A9 + B106, E:T 40:1",0%
same,% Specific Lysis,"3A9 target cells (H-2k); target 3A9 + B106, E:T 80:1",0%
same,% Specific Lysis,"3A9 target cells (H-2k); target 3A9 + B106, E:T 160:1",0%
"YLRDQQLLGIWGC [Peptide 61, gp160 aa 586-598]",T-cell Proliferation Responses,[4]; Rhesus Monkey #7,—
same,T-cell Proliferation Responses,[4]; Rhesus Monkey #23,3+
same,T-cell Proliferation Responses,[4]; Rhesus Monkey #283C,2+
same,PBMC proliferative responses (in words),"[4]; three rhesus monkeys, monitored for 32 weeks",Two of the three rhesus monkey-derived PBMC preparations also showed good proliferative responses
same,"In Vitro Proliferation of PLN Cells from A SW × Balb/c F1, GP 160",[5]; in vitro antigen: GP 160,++
same,"In Vitro Proliferation of PLN Cells from A SW × Balb/c F1, Analogous Peptide",[5]; [7],++
same,T cell response against the corresponding peptide and native HIV envelope protein gp160 (in words),[6]; [8],strong T cell response
same,"In Vitro Proliferation of PLN Cells from B6C3F1, GP 160",[6]; in vitro antigen: GP 160,+
same,"In Vitro Proliferation of PLN Cells from B6C3F1, Analogous Peptide",[6]; [7],++
same,Antipeptide Antibody Reactivity to Analogous Peptide,"BALB/c mice; antibody raised in Balb/C mice, ELISA end point",−
same,anti-peptide antibody production (in words),BALB/c mice; [8],do not stimulate anti-peptide antibody production
same,anti-peptide antibody response (in words),BALB/c mice; high molecular weight forms of the peptides,very low to negligible amounts of anti-peptide antibodies
"YNKRKRIHIGPGRAFYTTKNNIGC [Peptide D23, V3 loop peptide, strain MN]",% RT INHIBITION,[2],98.8%
